The supplement of paper PMC10307832

Experiments:
Test in all cases: relative viability (nuclei count vs DMSO), 5 days (fraction); higher = more cells survive
[1] = compound: C(C(=O)C(=O)O)Br [Bromopyruvate] + COc1cc2c(Oc3ccc(NC(=O)C4(C(=O)Nc5ccc(F)cc5)CC4)cc3F)ccnc2cc1OCCCN1CCOCC1 [Foretinib] (partner 0.25 µM)
How it was run: (§1)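 Lung cancer cell lines, seeded in 1536-well plates, were treated the following day by pin tool with a single drug or with five library-drug doses (not always all listed) in √10 steps on top of a fixed anchor-drug dose. Cells were fixed and nuclei stained in one step after 5 days, and nuclei were counted. Relative viability is the nuclei count for treated wells divided by that for vehicle wells, reported as medians of duplicate plates.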

[2] = compound: CC(O)(CS(=O)(=O)c1ccc(F)cc1)C(=O)Nc1ccc(C#N)c(C(F)(F)F)c1 [Bicalutamide] + CS(=O)(=O)N1CCN(Cc2cc3nc(-c4cccc5[nH]ncc45)nc(N4CCOCC4)c3s2)CC1 [Pictilisib] (partner 1 µM)
How it was run: as §1

[3] = compound: C(C(=O)C(=O)O)Br [Bromopyruvate] + C[C@@H](Oc1cc(-c2cnn(C3CCNCC3)c2)cnc1N)c1c(Cl)ccc(F)c1Cl [Crizotinib] (partner 1 µM)
How it was run: as §1

[4] = compound: C(C(=O)C(=O)O)Br [Bromopyruvate] + C[C@]1(O)C[C@@H](c2nc(-c3ccc4ccc(-c5ccccc5)nc4c3)c3c(N)nccn32)C1 [Linsitinib] (partner 1 µM)
How it was run: as §1

Row | Cell Line | relative viability ([1]; first compound 1 µM) | relative viability ([1]; first compound 3.162 µM) | relative viability ([1]; first compound 10 µM) | relative viability ([1]; first compound 31.62 µM) | relative viability ([1]; first compound 100 µM) | relative viability ([2]; first compound 0.08 µM) | relative viability ([2]; first compound 0.253 µM) | relative viability ([2]; first compound 0.8 µM) | relative viability ([2]; first compound 2.53 µM) | relative viability ([3]; first compound 1 µM) | relative viability ([3]; first compound 3.162 µM) | relative viability ([3]; first compound 10 µM) | relative viability ([3]; first compound 31.62 µM) | relative viability ([3]; first compound 100 µM) | relative viability ([4]; first compound 1 µM) | relative viability ([4]; first compound 3.162 µM) | relative viability ([4]; first compound 10 µM) | relative viability ([4]; first compound 31.62 µM) | relative viability ([4]; first compound 100 µM)
1 | EPLC-272H | 0.777 | 0.718 | 0.81 | 0.688 | 0.888 | 0.311 | 0.266 | 0.329 | 0.33 | 0.773 | 0.996 | 0.999 | 0.92 | 0.911 | 1.06 | 1.14 | 1.13 | 1.19 | 1.3
2 | NCI-H1563 | 0.869 | 1.11 | 0.946 | 0.879 | 0.901 | 0.641 | 0.596 | 0.644 | 0.599 | 0.883 | 0.979 | 0.956 | 0.828 | 0.998 | 1.19 | 1.42 | 1.16 | 1.23 | 1.07
3 | NCI-H2228 | 0.798 | 0.82 | 0.941 | 0.754 | 0.794 | 0.347 | 0.341 | 0.425 | 0.409 | 0.44 | 0.641 | 0.492 | 0.404 | 0.617 | 0.81 | 0.837 | 0.693 | 0.535 | 0.505
4 | LXF-289 | 1.02 | 0.997 | 0.965 | 1.01 | 1.04 | 0.759 | 0.728 | 0.855 | 0.757 | 0.841 | 0.807 | 0.786 | 0.791 | 0.833 | 0.966 | 0.969 | 0.981 | 0.951 | 1.01
5 | NCI-H2023 | 0.716 | 0.776 | 0.813 | 0.985 | 0.806 | 0.279 | 0.21 | 0.253 | 0.178 | 0.685 | 0.658 | 0.618 | 0.785 | 0.542 | 0.664 | 0.72 | 0.682 | 0.752 | 0.605
6 | NCI-H3122 | 0.985 | 1.04 | 1.01 | 0.915 | 0.917 | 0.665 | 0.645 | 0.676 | 0.652 | 0.252 | 0.263 | 0.304 | 0.289 | 0.248 | 1.02 | 1.02 | 1.03 | 0.987 | 0.941
7 | NCI-H1755 | 0.936 | 0.923 | 0.925 | 0.909 | 0.937 | 0.476 | 0.378 | 0.523 | 0.279 | 0.973 | 0.797 | 0.884 | 0.881 | 1 | 1.01 | 1.03 | 0.984 | 0.984 | 0.985
8 | HCC-78 | 0.55 | 0.533 | 0.589 | 0.539 | 0.532 | 0.202 | 0.179 | 0.208 | 0.169 | 0.368 | 0.339 | 0.37 | 0.349 | 0.347 | 0.457 | 0.603 | 0.575 | 0.629 | 0.547
